Patent US10125100B2, “Kinase inhibitors” (Respivert Limited, priority 2014, dated 2018)

System: Jurkat cells
Experiment: (r) Cell cytotoxicity assay
Type: cell-based, human
Settings: 24 hours
Experimental: 1×10^5 Jurkat cells (immortalised human T lymphocytes) are added to the appropriate number of wells of a 96 well plate in 100 μL of media (RPMI supplemented with 10% foetal bovine serum). 1 μL of DMSO control (final concentration 1.0% v/v) or test compound (final concentration 20, 5 or 1 μg/mL) is added to the wells and incubated at 37° C., 5% CO2. After 24 hours, the plate is centrifuged at 1200 rpm for 3 minutes and the supernatant discarded. Cells are then resuspended in 150 μL (final concentration 7.5 μg/mL) of propidium iodide (PI) in PBS and incubated at 37° C., 5% CO2 for 15 minutes. After 15 minutes, cells are analysed by flow cytometry (BD accuri) using the FL3 window. The % viability is calculated as the % of cells that are PI negative in the test wells normalised to the DMSO control.

Row | Structure (SMILES) | % Viability at 1 μg/mL [%] | % Viability at 5 μg/mL [%] | % Viability at 20 μg/mL [%]
1 | COc1cc(Nc2cc(Oc3ccc(NC(=O)Nc4cc(C(C)(C)C)cc(NS(C)(=O)=O)c4OC)c4ccccc34)ccn2)ccc1C(=O)NCCCCCN(C)C [17(bd), 4-((4-((4-(3-(5-(tert-Butyl)-2-methoxy-3-(methylsulfonamido)phenyl)ureido)naphthalen-1-yl)oxy)pyridin-2-yl)amino)-N-(5-(dimethylamino)pentyl)-2-methoxybenzamide] | 85.8 | 28.7 | 0.1
2 | COc1cc(Nc2cc(Oc3ccc(NC(=O)Nc4cc(C(C)(C)C)cc(NS(C)(=O)=O)c4OC)c4ccccc34)ccn2)ccc1C(=O)NCCNC(=O)CCC(=O)O [17(cd), 4-((2-(4-((4-((4-(3-(5-(tert-Butyl)-2-methoxy-3-(methylsulfonamido)phenyl)ureido)-naphthalen-1-yl)oxy)pyridin-2-yl)amino)-2-methoxybenzamido)ethyl)amino)-4-oxobutanoic acid] | 96.4 | 96.5 | 91.4
3 | COc1cc(Nc2cc(Oc3ccc(NC(=O)Nc4cc(C(C)(C)C)cc(NS(C)(=O)=O)c4OC)c4ccccc34)ccn2)ccc1C(=O)NCCC(=O)O [17(ay), 3-(4-((4-((4-(3-(5-(tert-Butyl)-2-methoxy-3-(methylsulfonamido)phenyl)ureido)-naphthalen-1-yl)oxy)pyridin-2-yl)amino)-2-methoxybenzamido)propanoic acid] | 95.3 | 94.6 | 90.1
4 | COc1cc(Nc2cc(Oc3ccc(NC(=O)Nc4cc(C(C)(C)C)cc(NS(C)(=O)=O)c4OC)c4ccccc34)ccn2)ccc1C(=O)N[C@@H](CO)C(=O)O [17(bj), (S)-2-(4-((4-((4-(3-(5-(tert-Butyl)-2-methoxy-3-(methylsulfonamido)phenyl)ureido)-naphthalen-1-yl)oxy)pyridin-2-yl)amino)-2-methoxybenzamido)-3-hydroxypropanoic acid] | 96.2 | 96.6 | 94.8
5 | COc1cc(Nc2cc(Oc3ccc(NC(=O)Nc4cc(NS(C)(=O)=O)cc(C(C)(C)C)c4)c4ccccc34)ccn2)ccc1C(=O)NCCC1CCN(C)CC1 [17(bs), 4-((4-((4-(3-(3-(tert-Butyl)-5-(methylsulfonamido)phenyl)ureido)naphthalen-1-yl)oxy)pyridin-2-yl)amino)-2-methoxy-N-(2-(1-methylpiperidin-4-yl)ethyl)benzamide] | 90.9 | 48.7 | 0.3
6 | COc1cc(Nc2cc(Oc3ccc(NC(=O)Nc4cc(C(C)(C)C)cc(NS(C)(=O)=O)c4OC)c4ccccc34)ccn2)ccc1C(=O)NCC(CO)(CO)CO [Example 38, 4-((4-((4-(3-(5-(tert-Butyl)-2-methoxy-3-(methylsulfonamido)phenyl)ureido)naphthalen-1-yl)oxy)pyridin-2-yl)amino)-N-(3-hydroxy-2,2-bis(hydroxymethyl)propyl)-2-methoxybenzamide] | 90.0 | 63.7 | 6.0
7 | COc1cc(Nc2cc(Oc3ccc(NC(=O)Nc4cc(C(C)(C)C)cc(NS(C)(=O)=O)c4OC)c4ccccc34)ccn2)ccc1C(=O)NCCO [17(bn), 4-((4-((4-(3-(5-(tert-Butyl)-2-methoxy-3-(methylsulfonamido)phenyl)ureido)naphthalen-1-yl)oxy)pyridin-2-yl)amino)-N-(2-hydroxyethyl)-2-methoxybenzamide] | 102.8 | 65.6 | 19.5
